Read-outs that look alike come from different tables or passages of the source.
Tests used:
AGO2 MID domain [1] = target: T1, AGO2 MID domain (Homo sapiens, UniProt Q9UKV8); assay: 1H-15N HSQC NMR chemical shift perturbation; details: 20 °C, pH 6.70, 25 mM sodium phosphate, 150 mM NaCl, 2 mM TCEP; two binding sites suggested, one overlapping AMP
T1 construct: MID domain Gln432-Leu578 (147 residues); pE-SUMOpro-3 His-SUMO fusion, tag removed by SUMO protease 2; E. coli BL21(DE3); 15N-labelled for NMR

AGO2 MID domain [2] = target: T1, AGO2 MID domain; assay: SPR inhibition, immobilised biotin-PEG-UMP versus AGO2 MID domain; format: binding; details: HBS-EP+ pH 7.4, 2 mM DTT, 5% DMSO; competition at the 5'-terminal nucleotide site
AGO2 MID domain [3] = target: T1, AGO2 MID domain; assay: as above; format: binding
AGO2 MID domain [4] = target: T1, AGO2 MID domain; assay: as above; format: binding; details: read-out: % inhibition at 500 μmol/L
[5] = HBS-EP+ pH 7.4, 2 mM DTT, 5% DMSO, competition at the 5'-terminal nucleotide site

Compound	IC30 (AGO2 MID domain [2])	IC50 (AGO2 MID domain [3]; [5])	other results
COc1ccc(-c2nn(CCC(=O)O)cc2C=C2SC(=S)NC2=O)cc1 [Z56862757]	Three of the hit compounds showed stronger inhibition than BCI-137 in the SPR analysis	–	1H-15N HSQC NMR chemical shift perturbation (AGO2 MID domain [1]): NMR analysis suggests two Z56862757 binding sites, only one site could overlap with AMP
Nc1ncnc2c1ncn2[C@@H]1O[C@H](COP(=O)(O)O)[C@@H](O)[C@H]1O [AMP]	–	–	IC50 (AGO2 MID domain [3]; read-out: IC50): ~200 µM
Nc1ncnc2c1ncn2[C@@H]1O[C@H](CO)[C@@H](O)[C@H]1O [adenosine]	–	–	inhibition at 500 µM (AGO2 MID domain [4]): < 10%
COc1cc(C=C2SC(=S)N(C(CCC(=O)O)C(=O)O)C2=O)cc(Cl)c1O (stereo not drawn) [UZI/1999527]	Three of the hit compounds showed stronger inhibition than BCI-137 in the SPR analysis	–	–
Nc1nc2c(ncn2[C@@H]2O[C@H](COP(=O)(O)O)[C@@H](O)[C@H]2O)c(=O)[nH]1 [GMP]	–	AMP and UMP showed a stronger inhibition than CMP and GMP	–
Cc1cccc(C(Nc2ccc3c(c2)OC(F)(F)O3)P(=O)(O)O)c1 (stereo not drawn) [Z317095268]	Three of the hit compounds showed stronger inhibition than BCI-137 in the SPR analysis	–	–
Nc1ccn([C@@H]2O[C@H](COP(=O)(O)O)[C@@H](O)[C@H]2O)c(=O)n1 [CMP]	–	AMP and UMP showed a stronger inhibition than CMP and GMP	–
O=c1ccn([C@@H]2O[C@H](COP(=O)(O)O)[C@@H](O)[C@H]2O)c(=O)[nH]1 [UMP]	–	AMP and UMP showed a stronger inhibition than CMP and GMP	–

From publication PMC7394379, “Structure-guided screening strategy combining surface plasmon resonance with nuclear magnetic resonance for identification of small-molecule Argonaute 2 inhibitors” (PLoS ONE, 2020)
